Data: publication PMC12774368, “Cyclic-di-GMP controls Type III effector export and symptom development in Pseudomonas syringae infections via the export ATPase HrcN” (PLOS Pathogens, 2025)

Target: T1, HrcN (Δ1-18 WT HrcN) (Pseudomonas syringae group genomosp. 3, UniProt Q887B5)
T1 construct: gene sctN; N-terminal residues 1-18 removed, His6-tagged (tag not reported cut), pETM11, expressed in E. coli BL21(DE3) pLysS, HisTrap purified
Assay type: binding
Settings: 1 mM unlabelled competitor, 1.25 µM HrcN, 0.6 µM 2'-Fluo-AHC-c-diGMP; pH 7.5, 10 mM MgCl2

SMILES: Nc1nc2c(ncn2[C@@H]2O[C@@H]3COP(=O)(O)O[C@H]4[C@@H](O)[C@H](n5cnc6c(=O)[nH]c(N)nc65)O[C@@H]4COP(=O)(O)O[C@H]3[C@H]2O)c(=O)[nH]1 [cyclic-di-GMP]
- competition DRaCALA against fluorescent c-di-GMP: fluorescent cdG binding could be disrupted by the addition of unlabelled cdG
